#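 Tested at 5 concentrations; 48 h exposure; 96-well plates; endpoints linearly interpolated, else capped at highest concentration. TGI marks complete inhibition of growth.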
# Assays:
# Assay in all cases: NCI tumour cell line growth inhibition, 48 h
# 786-0 renal = system: 786-0 renal
# A549 NSCLC = system: A549 NSCLC
# ACHN renal = system: ACHN renal
# CAKI-1 renal = system: CAKI-1 renal
# COLO 205 colon = system: COLO 205 colon
# DLD-1 colon = system: DLD-1 colon
# DMS 114 small cell lung = system: DMS 114 small cell lung
# DMS 273 small cell lung = system: DMS 273 small cell lung
# HCC-2998 colon = system: HCC-2998 colon
# HCT-116 colon = system: HCT-116 colon
# HCT-15 colon = system: HCT-15 colon
# HL-60(TB) leukemia = system: HL-60(TB) leukemia
# HOP-62 NSCLC = system: HOP-62 NSCLC
# HOP-92 NSCLC = system: HOP-92 NSCLC
# HT29 colon = system: HT29 colon
# IGROV1 ovarian = system: IGROV1 ovarian
# K-562 leukemia = system: K-562 leukemia
# KM12 colon = system: KM12 colon
# KM20L2 colon = system: KM20L2 colon
# LOX IMVI melanoma = system: LOX IMVI melanoma
# LXFL 529 NSCLC = system: LXFL 529 NSCLC
# M14 melanoma = system: M14 melanoma
# M19-MEL melanoma = system: M19-MEL melanoma
# MALME-3M melanoma = system: MALME-3M melanoma
# MOLT-4 leukemia = system: MOLT-4 leukemia
# NCI-H226 lung = system: NCI-H226 lung
# NCI-H23 lung = system: NCI-H23 lung
# NCI-H460 lung = system: NCI-H460 lung
# NCI-H522 lung = system: NCI-H522 lung
# OVCAR-3 ovarian = system: OVCAR-3 ovarian
# OVCAR-4 ovarian = system: OVCAR-4 ovarian
# OVCAR-5 ovarian = system: OVCAR-5 ovarian
# OVCAR-8 ovarian = system: OVCAR-8 ovarian
# RPMI-8226 leukemia = system: RPMI-8226 leukemia
# RXF 393 renal = system: RXF 393 renal
# RXF-631 renal = system: RXF-631 renal
# SF-268 CNS = system: SF-268 CNS
# SF-295 CNS = system: SF-295 CNS
# SF-539 CNS = system: SF-539 CNS
# SK-MEL-28 melanoma = system: SK-MEL-28 melanoma
# SK-MEL-5 melanoma = system: SK-MEL-5 melanoma
# SK-OV-3 ovarian = system: SK-OV-3 ovarian
# SN12C renal = system: SN12C renal
# SNB-19 CNS = system: SNB-19 CNS
# SNB-75 CNS = system: SNB-75 CNS
# SNB-78 CNS = system: SNB-78 CNS
# SR leukemia = system: SR leukemia
# SW-620 colon = system: SW-620 colon
# TK-10 renal = system: TK-10 renal
# U251 CNS = system: U251 CNS
# UACC-257 melanoma = system: UACC-257 melanoma
# UACC-62 melanoma = system: UACC-62 melanoma
# UO-31 renal = system: UO-31 renal
# XF 498 CNS = system: XF 498 CNS
# A498 renal = system: A498 renal
# CCRF-CEM leukemia = system: CCRF-CEM leukemia
# EKVX NSCLC = system: EKVX NSCLC
# HOP-18 NSCLC = system: HOP-18 NSCLC
# MCF7 breast = system: MCF7 breast
# NCI/ADR-RES ovarian = system: NCI/ADR-RES ovarian
# P388 leukemia = system: P388 leukemia
# P388/ADR leukemia = system: P388/ADR leukemia
# SK-MEL-2 melanoma = system: SK-MEL-2 melanoma
# SN12K1 renal = system: SN12K1 renal
smiles,measurement,setting,value
COC(=O)N/N=C/c1oc(-c2ccccc2)c(-c2ccccc2)c1[N+](=O)[O-],TGI,786-0 renal,> 100 µM
same,TGI,A549 NSCLC,> 100 µM
same,TGI,ACHN renal,> 100 µM
same,TGI,CAKI-1 renal,> 100 µM
same,TGI,COLO 205 colon,> 100 µM
same,TGI,DLD-1 colon,> 100 µM
same,TGI,DMS 114 small cell lung,> 100 µM
same,TGI,DMS 273 small cell lung,> 100 µM
same,TGI,HCC-2998 colon,> 100 µM
same,TGI,HCT-116 colon,> 100 µM
same,TGI,HCT-15 colon,> 100 µM
same,TGI,HL-60(TB) leukemia,> 100 µM
same,TGI,HOP-62 NSCLC,> 100 µM
same,TGI,HOP-92 NSCLC,> 100 µM
same,TGI,HT29 colon,> 100 µM
same,TGI,IGROV1 ovarian,> 100 µM
same,TGI,K-562 leukemia,> 100 µM
same,TGI,KM12 colon,> 100 µM
same,TGI,KM20L2 colon,> 100 µM
same,TGI,LOX IMVI melanoma,> 100 µM
same,TGI,LXFL 529 NSCLC,> 100 µM
same,TGI,M14 melanoma,> 100 µM
same,TGI,M19-MEL melanoma,> 100 µM
same,TGI,MALME-3M melanoma,> 100 µM
same,TGI,MOLT-4 leukemia,> 100 µM
same,TGI,NCI-H226 lung,> 100 µM
same,TGI,NCI-H23 lung,> 100 µM
same,TGI,NCI-H460 lung,> 100 µM
same,TGI,NCI-H522 lung,> 100 µM
same,TGI,OVCAR-3 ovarian,> 100 µM
same,TGI,OVCAR-4 ovarian,> 100 µM
same,TGI,OVCAR-5 ovarian,> 100 µM
same,TGI,OVCAR-8 ovarian,> 100 µM
same,TGI,RPMI-8226 leukemia,> 100 µM
same,TGI,RXF 393 renal,> 100 µM
same,TGI,RXF-631 renal,> 100 µM
same,TGI,SF-268 CNS,> 100 µM
same,TGI,SF-295 CNS,> 100 µM
same,TGI,SF-539 CNS,> 100 µM
same,TGI,SK-MEL-28 melanoma,> 100 µM
same,TGI,SK-MEL-5 melanoma,> 100 µM
same,TGI,SK-OV-3 ovarian,> 100 µM
same,TGI,SN12C renal,> 100 µM
same,TGI,SNB-19 CNS,> 100 µM
same,TGI,SNB-75 CNS,> 100 µM
same,TGI,SNB-78 CNS,> 100 µM
same,TGI,SR leukemia,> 100 µM
same,TGI,SW-620 colon,> 100 µM
same,TGI,TK-10 renal,> 100 µM
same,TGI,U251 CNS,> 100 µM
same,TGI,UACC-257 melanoma,> 100 µM
same,TGI,UACC-62 melanoma,> 100 µM
same,TGI,UO-31 renal,> 100 µM
same,TGI,XF 498 CNS,> 100 µM
Nc1ncnc2c1ncn2C1CCC(CO)O1 (centres undefined),TGI,A498 renal,> 100 µM
same,TGI,A549 NSCLC,> 100 µM
same,TGI,CAKI-1 renal,> 100 µM
same,TGI,CCRF-CEM leukemia,> 100 µM
same,TGI,COLO 205 colon,> 100 µM
same,TGI,DLD-1 colon,> 100 µM
same,TGI,DMS 114 small cell lung,> 74.1 µM
same,TGI,DMS 273 small cell lung,> 100 µM
same,TGI,EKVX NSCLC,100 µM
same,TGI,HCC-2998 colon,> 77.4 µM
same,TGI,HCT-116 colon,> 100 µM
same,TGI,HCT-15 colon,> 100 µM
same,TGI,HL-60(TB) leukemia,> 100 µM
same,TGI,HOP-18 NSCLC,> 100 µM
same,TGI,HOP-62 NSCLC,> 100 µM
same,TGI,HOP-92 NSCLC,> 86.4 µM
same,TGI,HT29 colon,> 67.2 µM
same,TGI,IGROV1 ovarian,> 100 µM
same,TGI,K-562 leukemia,> 100 µM
same,TGI,KM12 colon,> 100 µM
same,TGI,KM20L2 colon,> 100 µM
same,TGI,LOX IMVI melanoma,> 100 µM
same,TGI,M19-MEL melanoma,> 100 µM
same,TGI,MALME-3M melanoma,> 100 µM
same,TGI,MCF7 breast,> 100 µM
same,TGI,MOLT-4 leukemia,> 100 µM
same,TGI,NCI-H226 lung,> 74.7 µM
same,TGI,NCI-H23 lung,> 71.5 µM
same,TGI,NCI-H460 lung,> 100 µM
same,TGI,NCI-H522 lung,> 100 µM
same,TGI,NCI/ADR-RES ovarian,> 77.4 µM
same,TGI,OVCAR-3 ovarian,> 100 µM
same,TGI,OVCAR-4 ovarian,> 89.1 µM
same,TGI,OVCAR-5 ovarian,> 100 µM
same,TGI,OVCAR-8 ovarian,> 79.4 µM
same,TGI,P388 leukemia,> 100 µM
same,TGI,P388/ADR leukemia,> 77.4 µM
same,TGI,RPMI-8226 leukemia,> 100 µM
same,TGI,RXF 393 renal,> 100 µM
same,TGI,SF-268 CNS,> 87.7 µM
same,TGI,SF-295 CNS,> 79.4 µM
same,TGI,SF-539 CNS,> 100 µM
same,TGI,SK-MEL-2 melanoma,> 100 µM
same,TGI,SK-MEL-28 melanoma,> 68.2 µM
same,TGI,SK-MEL-5 melanoma,> 100 µM
same,TGI,SK-OV-3 ovarian,> 100 µM
same,TGI,SN12C renal,> 100 µM
same,TGI,SN12K1 renal,> 69.5 µM
same,TGI,SNB-19 CNS,> 100 µM
same,TGI,SNB-75 CNS,> 100 µM
same,TGI,SNB-78 CNS,> 100 µM
same,TGI,SW-620 colon,> 100 µM
same,TGI,U251 CNS,> 100 µM
same,TGI,UACC-257 melanoma,> 100 µM
same,TGI,UACC-62 melanoma,> 100 µM
same,TGI,UO-31 renal,> 100 µM
same,TGI,XF 498 CNS,> 100 µM
O=C(Nc1ccccc1Br)c1cccc([N+](=O)[O-])c1O,TGI,786-0 renal,> 41 µM
same,TGI,A498 renal,9.05 µM
same,TGI,A549 NSCLC,> 100 µM
same,TGI,ACHN renal,> 36.8 µM
same,TGI,CAKI-1 renal,> 43.8 µM
same,TGI,CCRF-CEM leukemia,> 40.3 µM
same,TGI,COLO 205 colon,> 33.4 µM
same,TGI,DLD-1 colon,> 100 µM
same,TGI,DMS 114 small cell lung,18 µM
same,TGI,DMS 273 small cell lung,> 48.8 µM
same,TGI,EKVX NSCLC,42.9 µM
same,TGI,HCC-2998 colon,16.6 µM
same,TGI,HCT-116 colon,14.8 µM
same,TGI,HCT-15 colon,25.4 µM
same,TGI,HL-60(TB) leukemia,12.9 µM
same,TGI,HOP-18 NSCLC,> 25.1 µM
same,TGI,HOP-62 NSCLC,9.79 µM
same,TGI,HOP-92 NSCLC,4.99 µM
same,TGI,HT29 colon,> 63.3 µM
same,TGI,IGROV1 ovarian,> 59.7 µM
same,TGI,K-562 leukemia,> 100 µM
same,TGI,KM12 colon,19.3 µM
same,TGI,KM20L2 colon,36.7 µM
same,TGI,LOX IMVI melanoma,10.7 µM
same,TGI,LXFL 529 NSCLC,22.1 µM
same,TGI,M14 melanoma,28.9 µM
same,TGI,M19-MEL melanoma,12.9 µM
same,TGI,MALME-3M melanoma,7.38 µM
same,TGI,MOLT-4 leukemia,10.4 µM
same,TGI,NCI-H226 lung,14.8 µM
same,TGI,NCI-H23 lung,6.31 µM
same,TGI,NCI-H460 lung,> 37.9 µM
same,TGI,NCI-H522 lung,6.4 µM
same,TGI,OVCAR-3 ovarian,7.51 µM
same,TGI,OVCAR-4 ovarian,> 28.9 µM
same,TGI,OVCAR-5 ovarian,> 94 µM
same,TGI,OVCAR-8 ovarian,> 71.4 µM
same,TGI,RPMI-8226 leukemia,6.27 µM
same,TGI,RXF 393 renal,6.71 µM
same,TGI,RXF-631 renal,> 100 µM
same,TGI,SF-268 CNS,> 100 µM
same,TGI,SF-295 CNS,25.2 µM
same,TGI,SF-539 CNS,35 µM
same,TGI,SK-MEL-2 melanoma,52.7 µM
same,TGI,SK-MEL-28 melanoma,59.9 µM
same,TGI,SK-MEL-5 melanoma,5.11 µM
same,TGI,SK-OV-3 ovarian,> 57.8 µM
same,TGI,SN12C renal,> 81.8 µM
same,TGI,SNB-19 CNS,> 100 µM
same,TGI,SNB-75 CNS,53.1 µM
same,TGI,SNB-78 CNS,> 84.8 µM
same,TGI,SR leukemia,33 µM
same,TGI,SW-620 colon,> 100 µM
same,TGI,TK-10 renal,12.6 µM
same,TGI,U251 CNS,14.9 µM
same,TGI,UACC-257 melanoma,10.1 µM
same,TGI,UACC-62 melanoma,16.4 µM
same,TGI,UO-31 renal,5.73 µM

# — PubChem BioAssay (NCI)
